Assay results: ChEMBL document CHEMBL2440076, “New triarylpyrazoles as broad-spectrum anticancer agents: design, synthesis, and biological evaluation” (Eur J Med Chem, 2013)

What was measured:
Type in all cases: functional
NCI-H23 [1] = assay: Growth inhibition of human NCI-H23 cells assessed as cell growth at 5X10'-9 M after 48 hrs by sulforhodamine B assay; settings: NCI-H23, 48 h, read-out: Activity
NCI-H460 [2] = assay: Growth inhibition of human NCI-H460 cells assessed as cell growth at 5X10'-5 M after 48 hrs by sulforhodamine B assay; settings: NCI-H460, 48 h, read-out: Activity
HCT-15 = assay: Growth inhibition of human HCT15 cells assessed as cell growth at 5X10'-9 M after 48 hrs by sulforhodamine B assay; settings: HCT-15, 48 h, read-out: Activity
Malme-3M = assay: Growth inhibition of human MALME-3M cells assessed as cell growth at 5X10'-7 M after 48 hrs by sulforhodamine B assay; settings: read-out: Activity
ACHN = assay: Growth inhibition of human ACHN cells assessed as cell growth at 5X10'-5 M after 48 hrs by sulforhodamine B assay; settings: read-out: Activity
SF-295 [3] = assay: Growth inhibition of human SF295 cells assessed as cell growth at 5X10'-5 M after 48 hrs by sulforhodamine B assay; settings: SF-295, 48 h, read-out: Activity
OVCAR-8 = assay: Growth inhibition of human OVCAR8 cells assessed as cell growth at 5X10'-7 M after 48 hrs by sulforhodamine B assay; settings: OVCAR-8, 48 h, read-out: Activity
SNB-19 = assay: Growth inhibition of human SNB19 cells assessed as cell growth at 5X10'-7 M after 48 hrs by sulforhodamine B assay; settings: SNB-19, 48 h, read-out: Activity
UACC-257 [4] = assay: Growth inhibition of human UACC257 cells assessed as cell growth at 5X10'-5 M after 48 hrs by sulforhodamine B assay; settings: UACC-257, 48 h, read-out: Activity
[5] = Growth inhibition of human NCI-ADR-RES cells assessed as cell growth at 5X10'-8 M after 48 hrs by sulforhodamine B assay; settings: read-out: Activity
SF-539 [6] = assay: Growth inhibition of human SF539 cells assessed as cell growth at 5X10'-7 M after 48 hrs by sulforhodamine B assay; settings: SF-539, 48 h, read-out: Activity
[7] = Growth inhibition of human HCC2998 cells assessed as cell growth at 5X10'-5 M after 48 hrs by sulforhodamine B assay; settings: HCC 2998, 48 h, read-out: Activity
DU-145 [8] = assay: Growth inhibition of human DU145 cells assessed as cell growth at 5X10'-5 M after 48 hrs by sulforhodamine B assay; settings: DU-145, 48 h, read-out: Activity
SK-MEL-5 = assay: Growth inhibition of human SK-MEL-5 cells assessed as cell growth at 5X10'-9 M after 48 hrs by sulforhodamine B assay; settings: SK-MEL-5, 48 h, read-out: Activity
HT-29 = assay: Growth inhibition of human HT-29 cells assessed as cell growth at 5X10'-5 M after 48 hrs by sulforhodamine B assay; settings: HT-29, 48 h, read-out: Activity
UACC-62 = assay: Growth inhibition of human UACC62 cells assessed as cell growth at 5X10'-7 M after 48 hrs by sulforhodamine B assay; settings: UACC-62, 48 h, read-out: Activity
NCI-H460 [9] = assay: Growth inhibition of human NCI-H460 cells assessed as cell growth at 5X10'-6 M after 48 hrs by sulforhodamine B assay; settings: NCI-H460, 48 h, read-out: Activity
U-251 = assay: Growth inhibition of human U251 cells assessed as cell growth at 5X10'-5 M after 48 hrs by sulforhodamine B assay; settings: U-251, 48 h, read-out: Activity
DU-145 [10] = assay: Growth inhibition of human DU145 cells assessed as cell growth at 5X10'-7 M after 48 hrs by sulforhodamine B assay; settings: DU-145, 48 h, read-out: Activity
M14 = assay: Growth inhibition of human M14 cells assessed as cell growth at 5X10'-7 M after 48 hrs by sulforhodamine B assay; settings: M14, 48 h, read-out: Activity
MDA-MB-468 = assay: Growth inhibition of human MDA-MB-468 cells assessed as cell growth at 5X10'-6 M after 48 hrs by sulforhodamine B assay; settings: MDA-MB-468, 48 h, read-out: Activity
DU-145 [11] = assay: Growth inhibition of human DU145 cells assessed as cell growth at 5X10'-8 M after 48 hrs by sulforhodamine B assay; settings: DU-145, 48 h, read-out: Activity
A498 = assay: Growth inhibition of human A498 cells assessed as cell growth at 5X10'-7 M after 48 hrs by sulforhodamine B assay; settings: A498, 48 h, read-out: Activity
OVCAR-3 = assay: Growth inhibition of human OVCAR3 cells assessed as cell growth at 5X10'-8 M after 48 hrs by sulforhodamine B assay; settings: OVCAR-3, 48 h, read-out: Activity
K562 = assay: Growth inhibition of human K562 cells assessed as cell growth at 5X10'-5 M after 48 hrs by sulforhodamine B assay; settings: K562, 48 h, read-out: Activity
UACC-257 [12] = assay: Growth inhibition of human UACC257 cells assessed as cell growth at 5X10'-7 M after 48 hrs by sulforhodamine B assay; settings: UACC-257, 48 h, read-out: Activity
MCF7 = assay: Growth inhibition of human MCF7 cells assessed as cell growth at 5X10'-9 M after 48 hrs by sulforhodamine B assay; settings: MCF7, 48 h, read-out: Activity
SW-620 = assay: Growth inhibition of human SW620 cells assessed as cell growth at 5X10'-6 M after 48 hrs by sulforhodamine B assay; settings: SW-620, 48 h, read-out: Activity
LOX IMVI = assay: Growth inhibition of human LOXIMVI cells assessed as cell growth at 5X10'-8 M after 48 hrs by sulforhodamine B assay; settings: read-out: Activity
SF-295 [13] = assay: Growth inhibition of human SF295 cells assessed as cell growth at 5X10'-8 M after 48 hrs by sulforhodamine B assay; settings: SF-295, 48 h, read-out: Activity
KM12 = assay: Growth inhibition of human KM12 cells assessed as cell growth at 5X10'-7 M after 48 hrs by sulforhodamine B assay; settings: KM12, 48 h, read-out: Activity
A549 = assay: Growth inhibition of human A549/ATCC cells assessed as cell growth at 5X10'-7 M after 48 hrs by sulforhodamine B assay; settings: A549, 48 h, read-out: Activity
RXF 393 = assay: Growth inhibition of human RXF393 cells assessed as cell growth at 5X10'-8 M after 48 hrs by sulforhodamine B assay; settings: RXF 393, 48 h, read-out: Activity
[14] = Growth inhibition of human Hs 578T cells assessed as cell growth at 5X10'-9 M after 48 hrs by sulforhodamine B assay; settings: read-out: Activity
SK-OV-3 = assay: Growth inhibition of human SKOV3 cells assessed as cell growth at 5X10'-5 M after 48 hrs by sulforhodamine B assay; settings: SK-OV-3, 48 h, read-out: Activity
NCI-H23 [15] = assay: Growth inhibition of human NCI-H23 cells assessed as cell growth at 5X10'-8 M after 48 hrs by sulforhodamine B assay; settings: NCI-H23, 48 h, read-out: Activity
SF-539 [16] = assay: Growth inhibition of human SF539 cells assessed as cell growth at 5X10'-9 M after 48 hrs by sulforhodamine B assay; settings: SF-539, 48 h, read-out: Activity

| SMILES | growth at 0.005 µM (NCI-H23 [1]) | growth at 50 µM (NCI-H460 [2]) | growth at 0.005 µM (HCT-15) | growth at 0.5 µM (Malme-3M) | growth at 50 µM (ACHN) | growth at 50 µM (SF-295 [3]) | growth at 0.5 µM (OVCAR-8) | growth at 0.5 µM (SNB-19) | growth at 50 µM (UACC-257 [4]) | growth at 0.05 µM [5] | growth at 0.5 µM (SF-539 [6]) | growth at 50 µM [7] | growth at 50 µM (DU-145 [8]) | growth at 0.005 µM (SK-MEL-5) | growth at 50 µM (HT-29) | growth at 0.5 µM (UACC-62) | growth at 5 µM (NCI-H460 [9]) | growth at 50 µM (U-251) | growth at 0.5 µM (DU-145 [10]) | growth at 0.5 µM (M14) | other results |
| --- | --- | --- | --- | --- | --- | --- | --- | --- | --- | --- | --- | --- | --- | --- | --- | --- | --- | --- | --- | --- | --- |
| O=C(Nc1cccc(-n2cc(-c3ccncc3)c(-c3ccc(Cl)c(O)c3)n2)c1)Nc1cc(C(F)(F)F)cc(C(F)(F)F)c1 | 98% | -78% | 98% | 77% | -95% | -76% | 52% | 64% | -82% | 103% | 82% | -90% | -97% | 104% | -90% | 69% | -51% | -91% | 80% | 59% | growth at 5 µM (MDA-MB-468): -14%; growth at 0.05 µM (DU-145 [11]): 109%; growth at 0.5 µM (A498): 64%; growth at 0.05 µM (OVCAR-3): 111%; growth at 50 µM (K562): -26%; growth at 0.5 µM (UACC-257 [12]): 84%; growth at 0.005 µM (MCF7): 91%; growth at 5 µM (SW-620): 1%; growth at 0.05 µM (LOX IMVI): 100%; growth at 0.05 µM (SF-295 [13]): 90%; growth at 0.5 µM (KM12): 51%; growth at 0.5 µM (A549): 37%; growth at 0.05 µM (RXF 393): 89%; growth at 0.005 µM [14]: 97%; growth at 50 µM (SK-OV-3): -49%; growth at 0.05 µM (NCI-H23 [15]): 99%; growth at 0.005 µM (SF-539 [16]): 98% |
| COc1cc(-c2nn(-c3cccc(NC(=O)c4cccc(C(F)(F)F)c4)c3)cc2-c2ccncc2)ccc1Cl | 91% | -10% | 98% | 89% | 14% | -26% | 91% | 100% | 48% | 96% | 81% | -17% | -4% | 98% | -4% | 83% | 4% | 3% | 92% | 91% | growth at 5 µM (MDA-MB-468): -4%; growth at 0.05 µM (DU-145 [11]): 95%; growth at 0.5 µM (A498): 61%; growth at 0.05 µM (OVCAR-3): 101%; growth at 50 µM (K562): 7%; growth at 0.5 µM (UACC-257 [12]): 87%; growth at 0.005 µM (MCF7): 94%; growth at 5 µM (SW-620): 30%; growth at 0.05 µM (LOX IMVI): 91%; growth at 0.05 µM (SF-295 [13]): 95%; growth at 0.5 µM (KM12): 89%; growth at 0.5 µM (A549): 91%; growth at 0.05 µM (RXF 393): 99%; growth at 0.005 µM [14]: 91%; growth at 50 µM (SK-OV-3): 17%; growth at 0.05 µM (NCI-H23 [15]): 90%; growth at 0.005 µM (SF-539 [16]): 95% |
